Test results: ChEMBL document CHEMBL1667849, “Identification of small molecular inhibitors for Ero1p by structure-based virtual screening” (Bioorg Med Chem Lett, 2011)

Experiments:
ERO1-like protein alpha = biological target: T1, ERO1-like protein alpha (Homo sapiens, UniProt Q96HE7); experiment: Inhibition of human Ero1-Lalpha
T1 sequence (Q96HE7 whole entry): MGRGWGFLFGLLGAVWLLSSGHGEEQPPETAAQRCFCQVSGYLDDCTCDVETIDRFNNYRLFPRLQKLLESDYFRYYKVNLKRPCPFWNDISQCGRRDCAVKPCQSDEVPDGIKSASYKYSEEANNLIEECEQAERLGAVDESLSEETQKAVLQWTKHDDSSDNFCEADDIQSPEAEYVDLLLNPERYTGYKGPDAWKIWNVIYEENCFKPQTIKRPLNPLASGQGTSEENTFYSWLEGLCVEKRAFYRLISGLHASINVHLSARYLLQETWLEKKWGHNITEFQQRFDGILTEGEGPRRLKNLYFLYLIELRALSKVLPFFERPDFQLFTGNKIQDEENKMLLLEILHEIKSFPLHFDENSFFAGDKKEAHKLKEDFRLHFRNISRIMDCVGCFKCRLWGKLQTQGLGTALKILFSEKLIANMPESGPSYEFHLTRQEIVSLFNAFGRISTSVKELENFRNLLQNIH

[1] = Inhibition of yeast Ero1p by fluorescence assay; set-up: species or system Saccharomyces cerevisiae

Compound | IC50 (ERO1-like protein alpha) [µM] | IC50 [1] [µM]
COc1cc(/C=C2\C(=O)NN(c3ccc(Br)cc3)C2=O)cc(Br)c1OC(C)=O | 3 | 31
COc1cc(Cl)cc(/C=C2\C(=O)NN(c3ccc(F)c(Cl)c3)C2=O)c1O | 38 | 
COc1ccc(/C=C2/C(=O)N(c3ccc(Cl)cc3)N=C2C(F)(F)F)cc1OC | 8 | 73
COc1cc(/C=C2/N=C(c3ccc4ccccc4c3)OC2=O)ccc1OC(C)=O | 54 | 
O=C(Nc1sc(-c2ccccc2)cc1C(=O)O)c1ccc(Br)cc1 | 67 | 
O=C(N/N=C1\C(=O)N(Cc2cccc([N+](=O)[O-])c2)c2ccccc21)c1cc2ccccc2cc1O | 108 | 
O=C(Cn1cnc([N+](=O)[O-])c1[N+](=O)[O-])Nc1cc(Oc2ccccc2)cc([N+](=O)[O-])c1 | 10 | > 300
O=C(Nc1cc2c(cc1C(=O)O)C(=O)c1ccccc1C2=O)c1ccc([N+](=O)[O-])cc1 | 37 | 
O=C1NC(=O)N(c2ccc(Cl)cc2)C(=O)/C1=C/c1ccc(O)c(O)c1 | 11 | 
CCOc1cc(/C=C2\C(=O)NC(=O)N(c3ccc(C)cc3)C2=O)ccc1OCCOc1cccc2ccccc12 | 17 | 
COc1ccc(N2C(=O)NC(=O)/C(=C\c3ccc(OCCOc4cccc(OC)c4)c(OC)c3)C2=O)cc1 | 24 | 
O=C1NC(=O)N(c2ccc(Cl)cc2)C(=O)/C1=C/Nc1cccc(O)c1 | 80 | 
